Tests used:
Assay type in all cases: in vivo, human
Thymoma = assay: Phase I/II efficacy; settings: belinostat + PAC; 11 evaluable patients
[1] = tested on: patients with advanced thymic epithelial tumors; assay: Safety: treatment-related adverse events
[2] = tested on: γ-H2AX expression on CD3+ and CD14+ cells; assay: DNA damage: γ-H2AX expression in PBMC
[3] = Dose level 1 (n=24), belinostat 1000 mg/m^2 + PAC
[4] = Dose level 2 (n=2), belinostat 2000 mg/m^2 + PAC

SMILES: O=C(/C=C/c1cccc(S(=O)(=O)Nc2ccccc2)c1)NO [belinostat, N-hydroxy-3-(phenylsulphamoylphenyl) acrylamide]
- Stable Disease (Thymoma): 4 (36) n (%)
- Alanine aminotransferase increased, Grade 3/4 (%) ([1]; All dose levels (n= 26)): 4 (15) n (%)
- Aspartate aminotransferase increased, Grade 3/4 (%) ([1]; All dose levels (n= 26)): 6 (23) n (%)
- Atrial fibrillation, Grade 3/4 (%) ([1]; All dose levels (n= 26)): 1 (4) n (%)
- Ejection fraction decreased, Grade 3/4 (%) ([1]; All dose levels (n= 26)): 1(4) n (%)
- Electrocardiogram QT corrected interval prolonged, Grade 3/4 (%) ([1]; All dose levels (n= 26)): 1(4) n (%)
- Enterocolitis infectious, Grade 3/4 (%) ([1]; All dose levels (n= 26)): 2(8) n (%)
- Febrile neutropenia, Grade 3/4 (%) ([1]; All dose levels (n= 26)): 3(12) n (%)
- Hearing impaired, Grade 3/4 (%) ([1]; All dose levels (n= 26)): 1(4) n (%)
- Hypermagnesemia, Grade 3/4 (%) ([1]; All dose levels (n= 26)): 3 (12) n (%)
- Hypoalbuminemia, Grade 3/4 (%) ([1]; All dose levels (n= 26)): 2(8) n (%)
- Hypocalcemia, Grade 3/4 (%) ([1]; All dose levels (n= 26)): 2(8) n (%)
- Hypokalemia, Grade 3/4 (%) ([1]; All dose levels (n= 26)): 4(15) n (%)
- Hypomagnesemia, Grade 3/4 (%) ([1]; All dose levels (n= 26)): 1(4) n (%)
- Hyponatremia, Grade 3/4 (%) ([1]; All dose levels (n= 26)): 1(4) n (%)
- Hypophosphatemia, Grade 3/4 (%) ([1]; All dose levels (n= 26)): 6(23) n (%)
- Limb edema, Grade 3/4 (%) ([1]; All dose levels (n= 26)): 1 (4) n (%)
- Lung infection, Grade 3/4 (%) ([1]; All dose levels (n= 26)): 2(8) n (%)
- Lymphocyte count decreased, Grade 3/4 (%) ([1]; All dose levels (n= 26)): 26 (100) n (%)
- Neutrophil count decreased, Grade 3/4 (%) ([1]; All dose levels (n= 26)): 21 (81) n (%)
- Non-cardiac chest pain, Grade 3/4 (%) ([1]; All dose levels (n= 26)): 1(4) n (%)
- Pain in extremity, Grade 3/4 (%) ([1]; All dose levels (n= 26)): 1(4) n (%)
- Platelet count decreased, Grade 3/4 (%) ([1]; All dose levels (n= 26)): 12 (46) n (%)
- Thromboembolic event, Grade 3/4 (%) ([1]; All dose levels (n= 26)): 3(12) n (%)
- Tumor lysis syndrome, Grade 3/4 (%) ([1]; All dose levels (n= 26)): 1(4) n (%)
- Urinary tract infection, Grade 3/4 (%) ([1]; All dose levels (n= 26)): 1(4) n (%)
- White blood cell decreased, Grade 3/4 (%) ([1]; All dose levels (n= 26)): 24 (92) n (%)
- Alanine aminotransferase increased, Grade 3/4 [1, 3]: 3
- Aspartate aminotransferase increased, Grade 3/4 [1, 3]: 4
- Ejection fraction decreased, Grade 3/4 [1, 3]: 1
- Electrocardiogram QT corrected interval prolonged, Grade 3/4 [1, 3]: 1
- Enterocolitis infectious, Grade 3/4 [1, 3]: 1
- Febrile neutropenia, Grade 3/4 [1, 3]: 3
- Hearing impaired, Grade 3/4 [1, 3]: 1
- Hypermagnesemia, Grade 3/4 [1, 3]: 3
- Hypoalbuminemia, Grade 3/4 [1, 3]: 1
- Hypomagnesemia, Grade 3/4 [1, 3]: 1
- Hypophosphatemia, Grade 3/4 [1, 3]: 4
- Lung infection, Grade 3/4 [1, 3]: 2
- Lymphocyte count decreased, Grade 3/4 [1, 3]: 24
- Neutrophil count decreased, Grade 3/4 [1, 3]: 19
- Non-cardiac chest pain, Grade 3/4 [1, 3]: 1
- Pain in extremity, Grade 3/4 [1, 3]: 1
- Platelet count decreased, Grade 3/4 [1, 3]: 10
- Thromboembolic event, Grade 3/4 [1, 3]: 3
- Urinary tract infection, Grade 3/4 [1, 3]: 1
- White blood cell decreased, Grade 3/4 [1, 3]: 22
- Alanine aminotransferase increased, Grade 3/4 [1, 4]: 1
- Aspartate aminotransferase increased, Grade 3/4 [1, 4]: 2
- Atrial fibrillation, Grade 3/4 [1, 4]: 1
- Enterocolitis infectious, Grade 3/4 [1, 4]: 1
- Hypoalbuminemia, Grade 3/4 [1, 4]: 1
- Hypophosphatemia, Grade 3/4 [1, 4]: 2
- Lymphocyte count decreased, Grade 3/4 [1, 4]: 2
- Neutrophil count decreased, Grade 3/4 [1, 4]: 2
- Platelet count decreased, Grade 3/4 [1, 4]: 2
- Tumor lysis syndrome, Grade 3/4 [1, 4]: 1
- White blood cell decreased, Grade 3/4 [1, 4]: 2
- Patients requiring dose reductions of PAC due to toxicities ([1]; belinostat + PAC, n=26): 35%
- Patients who discontinued treatment due to adverse events ([1]; belinostat + PAC, n=26): Four
- Patients with QTc prolongation ([1]; belinostat + PAC, n=26, any grade, one grade 3 event): 35%
- γ-H2AX expression on CD3+ cells ([2]; after belinostat alone, p=0.033): increased
- γ-H2AX expression on CD14+ cells ([2]; after belinostat alone, p=0.41): did not increase significantly
- γ-H2AX expression on CD14+ cells ([2]; after belinostat plus chemotherapy, p=0.012): increased
- γ-H2AX expression on CD3+ cells ([2]; following belinostat plus chemotherapy, p=0.01): increased

Source: publication PMC4216756 (Clinical cancer research : an official journal of the …, 2014)
